Test results taken from ChEMBL document CHEMBL3734738, “A structure-activity relationship of non-peptide macrocyclic histone deacetylase inhibitors and their anti-proliferative and anti-inflammatory activities” (Bioorg Med Chem, 2015).

How the values were obtained:
Histone deacetylase 1 = Histone deacetylase 1 (Homo sapiens, UniProt Q13547); assay: Inhibition of recombinant HDAC1 (unknown origin) expressed in Escherichia coli BL21(DE3) after 60 mins using trichostatin A by label-free mass spectrometry-based SAMDI assay
Histone deacetylase 1, sequence (Q13547 whole entry): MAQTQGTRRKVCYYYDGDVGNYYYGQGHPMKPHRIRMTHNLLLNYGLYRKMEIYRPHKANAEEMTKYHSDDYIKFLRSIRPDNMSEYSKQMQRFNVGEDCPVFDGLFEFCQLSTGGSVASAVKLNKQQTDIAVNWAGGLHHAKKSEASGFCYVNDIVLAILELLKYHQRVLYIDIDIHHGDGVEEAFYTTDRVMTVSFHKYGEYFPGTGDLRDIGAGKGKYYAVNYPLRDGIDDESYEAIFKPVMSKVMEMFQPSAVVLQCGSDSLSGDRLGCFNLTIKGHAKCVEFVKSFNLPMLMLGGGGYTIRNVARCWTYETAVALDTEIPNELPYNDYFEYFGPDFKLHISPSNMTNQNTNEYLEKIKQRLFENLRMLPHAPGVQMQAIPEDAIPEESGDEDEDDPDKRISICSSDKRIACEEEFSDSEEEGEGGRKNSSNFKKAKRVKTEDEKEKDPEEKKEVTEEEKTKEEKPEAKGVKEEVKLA

Histone deacetylase 8 = biological target: T1, Histone deacetylase 8 (Homo sapiens, UniProt Q9BY41); assay: Inhibition of recombinant HDAC8 (unknown origin) expressed in Escherichia coli BL21(DE3) after 60 mins using trichostatin A by label-free mass spectrometry-based SAMDI assay
T1 sequence (Q9BY41 whole entry): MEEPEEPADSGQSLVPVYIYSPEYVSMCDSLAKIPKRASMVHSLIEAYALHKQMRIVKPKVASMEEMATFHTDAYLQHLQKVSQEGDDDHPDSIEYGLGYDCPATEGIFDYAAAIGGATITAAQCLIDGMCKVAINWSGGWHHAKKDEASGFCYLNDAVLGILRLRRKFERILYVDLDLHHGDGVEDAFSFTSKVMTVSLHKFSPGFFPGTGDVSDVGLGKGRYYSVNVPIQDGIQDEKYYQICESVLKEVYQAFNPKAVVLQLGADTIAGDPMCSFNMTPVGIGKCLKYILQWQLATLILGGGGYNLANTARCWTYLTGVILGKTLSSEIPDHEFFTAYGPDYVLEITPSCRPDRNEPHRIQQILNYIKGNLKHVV

[1] = biological target: T2, Protein deacetylase HDAC6 (Homo sapiens, UniProt Q9UBN7); assay: Inhibition of recombinant HDAC6 (unknown origin) expressed in Escherichia coli BL21(DE3) after 60 mins using trichostatin A by label-free mass spectrometry-based SAMDI assay
T2 sequence (Q9UBN7 whole entry): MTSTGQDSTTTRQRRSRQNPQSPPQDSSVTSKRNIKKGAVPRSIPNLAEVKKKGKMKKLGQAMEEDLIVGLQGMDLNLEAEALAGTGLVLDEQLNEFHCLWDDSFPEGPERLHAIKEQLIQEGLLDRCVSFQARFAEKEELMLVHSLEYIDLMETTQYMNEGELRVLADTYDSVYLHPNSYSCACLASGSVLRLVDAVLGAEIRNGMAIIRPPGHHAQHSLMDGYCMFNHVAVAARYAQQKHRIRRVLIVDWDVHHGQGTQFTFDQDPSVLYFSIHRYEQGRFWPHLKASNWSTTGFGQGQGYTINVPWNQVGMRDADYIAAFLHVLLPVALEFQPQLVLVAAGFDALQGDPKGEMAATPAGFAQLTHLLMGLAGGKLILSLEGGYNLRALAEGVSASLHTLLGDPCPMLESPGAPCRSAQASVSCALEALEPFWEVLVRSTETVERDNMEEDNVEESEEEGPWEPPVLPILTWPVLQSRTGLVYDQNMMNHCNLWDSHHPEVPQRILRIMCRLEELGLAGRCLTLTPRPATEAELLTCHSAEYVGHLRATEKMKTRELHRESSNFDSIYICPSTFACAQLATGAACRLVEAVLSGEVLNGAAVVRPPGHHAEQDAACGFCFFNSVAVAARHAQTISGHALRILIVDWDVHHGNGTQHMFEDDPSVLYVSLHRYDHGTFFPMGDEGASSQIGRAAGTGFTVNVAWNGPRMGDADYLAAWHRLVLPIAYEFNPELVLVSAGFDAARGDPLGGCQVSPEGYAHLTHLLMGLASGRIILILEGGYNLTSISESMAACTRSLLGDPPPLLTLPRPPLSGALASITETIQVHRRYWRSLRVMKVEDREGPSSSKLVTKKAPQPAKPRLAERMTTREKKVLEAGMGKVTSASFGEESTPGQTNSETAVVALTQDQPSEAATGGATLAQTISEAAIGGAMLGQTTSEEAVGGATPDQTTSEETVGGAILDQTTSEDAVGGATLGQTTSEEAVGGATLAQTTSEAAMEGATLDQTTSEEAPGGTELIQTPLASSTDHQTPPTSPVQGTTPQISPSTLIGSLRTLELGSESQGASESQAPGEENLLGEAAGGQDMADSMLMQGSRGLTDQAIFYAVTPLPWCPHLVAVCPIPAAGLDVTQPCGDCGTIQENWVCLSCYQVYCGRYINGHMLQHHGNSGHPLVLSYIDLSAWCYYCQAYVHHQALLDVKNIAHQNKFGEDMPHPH

Molecule `CC[C@H]1OC(=O)[C@H](C)[C@@H](O[C@@H]2C[C@](C)(OC)[C@H](O)[C@@H](C)O2)[C@H](C)[C@@H](O[C@@H]2O[C@H](C)C[C@H](N(C)C)[C@H]2O)[C@@](C)(O)C[C@@H](C)CN(Cc2ccc(-c3cn(CCCC(=O)NO)nn3)cc2)[C@@H](C)[C@@H](O)[C@]1(C)O` has an IC50 (Histone deacetylase 1) of over 10000 nM, an IC50 (Histone deacetylase 8) of 2770 nM and an IC50 [1] of 620 nM.

In the case of `CC[C@H]1OC(=O)[C@H](C)[C@@H](O[C@@H]2C[C@](C)(OC)[C@H](O)[C@@H](C)O2)[C@H](C)[C@@H](O[C@@H]2O[C@H](C)C[C@H](N(C)C)[C@H]2O)[C@@](C)(O)C[C@@H](C)CN(Cc2ccc(-c3cn(CCCCCC(=O)NO)nn3)cc2)[C@@H](C)[C@@H](O)[C@]1(C)O`, the IC50 (Histone deacetylase 1) is reported as 145 nM, the IC50 (Histone deacetylase 8) is reported as 2370 nM and the IC50 [1] is reported as 10.3 nM.

For `CC[C@@H]1OC(=O)[C@@H](C)[C@H](O[C@H]2C[C@@](C)(OC)[C@@H](O)[C@H](C)O2)[C@H](C)[C@H](O[C@@H]2O[C@H](C)C[C@H](N(C)Cc3ccc(-c4cn(CCC(=O)NO)nn4)cc3)[C@H]2O)[C@@](C)(OC)C[C@H](C)C(=O)[C@@H](C)[C@@H](O)[C@@]1(C)O`, the IC50 (Histone deacetylase 1) was over 10000 nM, the IC50 (Histone deacetylase 8) was 2450 nM and the IC50 [1] was 919 nM.

With `CC[C@@H]1OC(=O)[C@@H](C)[C@H](O[C@H]2C[C@@](C)(OC)[C@@H](O)[C@H](C)O2)[C@H](C)[C@H](O[C@@H]2O[C@H](C)C[C@H](N(C)Cc3ccc(-c4cn(CC(=O)NO)nn4)cc3)[C@H]2O)[C@@](C)(OC)C[C@H](C)C(=O)[C@@H](C)[C@@H](O)[C@@]1(C)O` the IC50 (Histone deacetylase 1) was over 10000 nM, the IC50 (Histone deacetylase 8) was over 10000 nM and the IC50 [1] was over 10000 nM.

Molecule `CC[C@H]1OC(=O)[C@H](C)[C@@H](O[C@@H]2C[C@](C)(OC)[C@H](O)[C@@H](C)O2)[C@H](C)[C@@H](O[C@@H]2O[C@H](C)C[C@H](N(C)C)[C@H]2O)[C@@](C)(O)C[C@@H](C)CN(Cc2ccc(-c3cn(CCC(=O)NO)nn3)cc2)[C@@H](C)[C@@H](O)[C@]1(C)O` has an IC50 (Histone deacetylase 1) of over 10000 nM, an IC50 (Histone deacetylase 8) of over 10000 nM and an IC50 [1] of 1230 nM.

`CC[C@H]1OC(=O)[C@H](C)C(=O)[C@H](C)[C@@H](O[C@@H]2O[C@H](C)C[C@H](N(C)Cc3ccc(-c4cn(CCCCC(=O)NO)nn4)cc3)[C@H]2O)[C@@](C)(OC)C[C@@H](C)C2=NCCN3C(=O)O[C@@]1(C)[C@H]3[C@H]2C` showed an IC50 (Histone deacetylase 1) of 269 nM, an IC50 (Histone deacetylase 8) of 3210 nM and an IC50 [1] of 77.2 nM.

Work on `CC[C@@H]1OC(=O)[C@@H](C)[C@H](O[C@H]2C[C@@](C)(OC)[C@](O)(CN(C)Cc3ccc(-c4cn(CC(=O)NO)nn4)cc3)[C@H](C)O2)[C@H](C)[C@H](O[C@@H]2O[C@H](C)C[C@H](N(C)C)[C@H]2O)[C@@](C)(OC)C[C@H](C)C(=O)[C@@H](C)[C@@H](O)[C@@]1(C)O` yielded an IC50 (Histone deacetylase 1) of over 10000 nM, an IC50 (Histone deacetylase 8) of 7120 nM and an IC50 [1] of 5350 nM.

Work on `CC[C@H]1OC(=O)[C@@H](C)[C@H](O[C@H]2C[C@@](C)(OC)[C@@H](O)[C@H](C)O2)[C@H](C)[C@H](O[C@H]2O[C@@H](C)C[C@@H](N(C)Cc3ccc(-c4cn(CC(=O)NO)nn4)cc3)[C@@H]2O)[C@@](C)(O)C[C@H](C)CN(C)[C@@H](C)[C@H](O)[C@@]1(C)O` yielded an IC50 (Histone deacetylase 1) of over 10000 nM, an IC50 (Histone deacetylase 8) of over 10000 nM and an IC50 [1] of 5660 nM.

Molecule `CC[C@@H]1OC(=O)[C@@H](C)[C@H](O[C@H]2C[C@@](C)(OC)[C@@H](O)[C@H](C)O2)[C@H](C)[C@H](O[C@@H]2O[C@H](C)C[C@H](N(C)Cc3ccc(-c4cn(CCCCC(=O)NO)nn4)cc3)[C@H]2O)[C@@](C)(OC)C[C@H](C)C(=O)[C@@H](C)[C@@H](O)[C@@]1(C)O` has an IC50 (Histone deacetylase 1) of 4870 nM, an IC50 (Histone deacetylase 8) of 877 nM and an IC50 [1] of 120 nM.

`CC[C@@H]1OC(=O)[C@@H](C)[C@H](O[C@H]2C[C@@](C)(OC)[C@](O)(CN(C)Cc3ccc(-c4cn(CCCCC(=O)NO)nn4)cc3)[C@H](C)O2)[C@H](C)[C@H](O[C@@H]2O[C@H](C)C[C@H](N(C)C)[C@H]2O)[C@@](C)(OC)C[C@H](C)C(=O)[C@@H](C)[C@@H](O)[C@@]1(C)O` gave an IC50 (Histone deacetylase 1) of 3690 nM, an IC50 (Histone deacetylase 8) of 1820 nM and an IC50 [1] of 269 nM.
